Laboratory results as given in the supplement of paper PMC10307832.

Experiments:
Assay in all cases: relative viability (nuclei count vs DMSO), 5 days (fraction); higher = more cells survive
ABC-1 = test system: ABC-1
How it was run: (§1)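 Values are medians from duplicate plates. Each reflects relative viability, defined as the nuclei count of treated wells over that of vehicle wells. Lung cancer cell lines in 1536-well plates were pin-tool dosed one day after seeding with one drug alone or with a fixed anchor-drug dose plus five library-drug doses (not always all listed) in √10 steps, then fixed, stained and imaged at 4× after 5 days.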

COR-L23 = test system: COR-L23
How it was run: as §1

EPLC-272H = test system: EPLC-272H
How it was run: as §1

HARA = test system: HARA
How it was run: as §1

HCC-15 = test system: HCC-15
How it was run: as §1

HCC-78 = test system: HCC-78
How it was run: as §1

LC-2-ad = test system: LC-2-ad
How it was run: as §1

LU99A = test system: LU99A
How it was run: as §1

NCI-H1355 = test system: NCI-H1355
How it was run: as §1

NCI-H1651 = test system: NCI-H1651
How it was run: as §1

NCI-H1915 = test system: NCI-H1915
How it was run: as §1

NCI-H1993 = test system: NCI-H1993
How it was run: as §1

NCI-H2023 = test system: NCI-H2023
How it was run: as §1

NCI-H2085 = test system: NCI-H2085
How it was run: as §1

NCI-H2126 = test system: NCI-H2126
How it was run: as §1

NCI-H2342 = test system: NCI-H2342
How it was run: as §1

NCI-H2347 = test system: NCI-H2347
How it was run: as §1

NCI-H358 = test system: NCI-H358
How it was run: as §1

NCI-H650 = test system: NCI-H650
How it was run: as §1

NCI-H838 = test system: NCI-H838
How it was run: as §1

PC-14 = test system: PC-14
How it was run: as §1

SW 1573 = test system: SW 1573
How it was run: as §1

UMC-11 = test system: UMC-11
How it was run: as §1

CC1(C)CCC(c2ccc(Cl)cc2)=C(CN2CCN(c3ccc(C(=O)NS(=O)(=O)c4ccc(N[C@H](CCN5CCOCC5)CSc5ccccc5)c(S(=O)(=O)C(F)(F)F)c4)cc3)CC2)C1 [Navitoclax] + N=C(N)NC(=N)NCCc1ccccc1 [Phenformin] (partner 250 µM)
relative viability (ABC-1; first compound 0.005 µM): 0.245 | relative viability (ABC-1; first compound 0.01581 µM): 0.292 | relative viability (ABC-1; first compound 0.05 µM): 0.277 | relative viability (ABC-1; first compound 0.1581 µM): 0.257 | relative viability (ABC-1; first compound 0.5 µM): 0.215 | relative viability (COR-L23; first compound 0.005 µM): 0.409 | relative viability (COR-L23; first compound 0.01581 µM): 0.494 | relative viability (COR-L23; first compound 0.05 µM): 0.516 | relative viability (COR-L23; first compound 0.1581 µM): 0.438 | relative viability (COR-L23; first compound 0.5 µM): 0.447 | relative viability (EPLC-272H; first compound 0.005 µM): 0.376 | relative viability (EPLC-272H; first compound 0.05 µM): 0.324 | relative viability (EPLC-272H; first compound 0.1581 µM): 0.329 | relative viability (EPLC-272H; first compound 0.5 µM): 0.253 | relative viability (HARA; first compound 0.005 µM): 0.491 | relative viability (HARA; first compound 0.01581 µM): 0.554 | relative viability (HARA; first compound 0.1581 µM): 0.415 | relative viability (HARA; first compound 0.5 µM): 0.477 | relative viability (HCC-15; first compound 0.005 µM): 0.453 | relative viability (HCC-15; first compound 0.01581 µM): 0.488 | relative viability (HCC-15; first compound 0.05 µM): 0.406 | relative viability (HCC-15; first compound 0.1581 µM): 0.483 | relative viability (HCC-15; first compound 0.5 µM): 0.422 | relative viability (HCC-78; first compound 0.005 µM): 0.727 | relative viability (HCC-78; first compound 0.01581 µM): 0.692 | relative viability (HCC-78; first compound 0.1581 µM): 0.645 | relative viability (HCC-78; first compound 0.5 µM): 0.75 | relative viability (LC-2-ad; first compound 0.005 µM): 0.577 | relative viability (LC-2-ad; first compound 0.01581 µM): 0.653 | relative viability (LC-2-ad; first compound 0.05 µM): 0.58 | relative viability (LC-2-ad; first compound 0.1581 µM): 0.505 | relative viability (LC-2-ad; first compound 0.5 µM): 0.572 | relative viability (LU99A; first compound 0.005 µM): 0.878 | relative viability (LU99A; first compound 0.01581 µM): 0.993 | relative viability (LU99A; first compound 0.05 µM): 0.726 | relative viability (LU99A; first compound 0.1581 µM): 0.829 | relative viability (LU99A; first compound 0.5 µM): 0.928 | relative viability (NCI-H1355; first compound 0.005 µM): 0.48 | relative viability (NCI-H1355; first compound 0.01581 µM): 0.467 | relative viability (NCI-H1355; first compound 0.05 µM): 0.388 | relative viability (NCI-H1355; first compound 0.1581 µM): 0.436 | relative viability (NCI-H1355; first compound 0.5 µM): 0.463 | relative viability (NCI-H1651; first compound 0.005 µM): 0.3 | relative viability (NCI-H1651; first compound 0.01581 µM): 0.3 | relative viability (NCI-H1651; first compound 0.05 µM): 0.298 | relative viability (NCI-H1651; first compound 0.1581 µM): 0.353 | relative viability (NCI-H1651; first compound 0.5 µM): 0.295 | relative viability (NCI-H1915; first compound 0.005 µM): 0.382 | relative viability (NCI-H1915; first compound 0.01581 µM): 0.431 | relative viability (NCI-H1915; first compound 0.05 µM): 0.441 | relative viability (NCI-H1915; first compound 0.1581 µM): 0.42 | relative viability (NCI-H1915; first compound 0.5 µM): 0.388 | relative viability (NCI-H1993; first compound 0.005 µM): 0.545 | relative viability (NCI-H1993; first compound 0.01581 µM): 0.498 | relative viability (NCI-H1993; first compound 0.05 µM): 0.629 | relative viability (NCI-H1993; first compound 0.1581 µM): 0.587 | relative viability (NCI-H1993; first compound 0.5 µM): 0.616 | relative viability (NCI-H2023; first compound 0.005 µM): 0.432 | relative viability (NCI-H2023; first compound 0.01581 µM): 0.447 | relative viability (NCI-H2023; first compound 0.05 µM): 0.382 | relative viability (NCI-H2023; first compound 0.1581 µM): 0.425 | relative viability (NCI-H2023; first compound 0.5 µM): 0.428 | relative viability (NCI-H2085; first compound 0.005 µM): 0.732 | relative viability (NCI-H2085; first compound 0.01581 µM): 0.847 | relative viability (NCI-H2085; first compound 0.05 µM): 0.593 | relative viability (NCI-H2085; first compound 0.1581 µM): 0.746 | relative viability (NCI-H2085; first compound 0.5 µM): 0.786 | relative viability (NCI-H2126; first compound 0.005 µM): 0.527 | relative viability (NCI-H2126; first compound 0.01581 µM): 0.53 | relative viability (NCI-H2126; first compound 0.05 µM): 0.45 | relative viability (NCI-H2126; first compound 0.1581 µM): 0.42 | relative viability (NCI-H2126; first compound 0.5 µM): 0.444 | relative viability (NCI-H2342; first compound 0.005 µM): 0.602 | relative viability (NCI-H2342; first compound 0.01581 µM): 0.627 | relative viability (NCI-H2342; first compound 0.05 µM): 0.486 | relative viability (NCI-H2342; first compound 0.1581 µM): 0.599 | relative viability (NCI-H2342; first compound 0.5 µM): 0.624 | relative viability (NCI-H2347; first compound 0.005 µM): 0.452 | relative viability (NCI-H2347; first compound 0.01581 µM): 0.567 | relative viability (NCI-H2347; first compound 0.1581 µM): 0.321 | relative viability (NCI-H2347; first compound 0.5 µM): 0.482 | relative viability (NCI-H358; first compound 0.005 µM): 0.362 | relative viability (NCI-H358; first compound 0.01581 µM): 0.376 | relative viability (NCI-H358; first compound 0.05 µM): 0.357 | relative viability (NCI-H358; first compound 0.1581 µM): 0.343 | relative viability (NCI-H358; first compound 0.5 µM): 0.424 | relative viability (NCI-H650; first compound 0.005 µM): 0.447 | relative viability (NCI-H650; first compound 0.01581 µM): 0.473 | relative viability (NCI-H650; first compound 0.05 µM): 0.456 | relative viability (NCI-H650; first compound 0.1581 µM): 0.456 | relative viability (NCI-H650; first compound 0.5 µM): 0.504 | relative viability (NCI-H838; first compound 0.005 µM): 0.529 | relative viability (NCI-H838; first compound 0.01581 µM): 0.735 | relative viability (NCI-H838; first compound 0.05 µM): 0.757 | relative viability (NCI-H838; first compound 0.1581 µM): 0.749 | relative viability (NCI-H838; first compound 0.5 µM): 0.664 | relative viability (PC-14; first compound 0.005 µM): 0.611 | relative viability (PC-14; first compound 0.01581 µM): 0.598 | relative viability (PC-14; first compound 0.05 µM): 0.57 | relative viability (PC-14; first compound 0.1581 µM): 0.541 | relative viability (PC-14; first compound 0.5 µM): 0.616 | relative viability (SW 1573; first compound 0.005 µM): 0.437 | relative viability (SW 1573; first compound 0.01581 µM): 0.503 | relative viability (SW 1573; first compound 0.05 µM): 0.358 | relative viability (SW 1573; first compound 0.1581 µM): 0.414 | relative viability (SW 1573; first compound 0.5 µM): 0.406 | relative viability (UMC-11; first compound 0.005 µM): 0.303 | relative viability (UMC-11; first compound 0.01581 µM): 0.323 | relative viability (UMC-11; first compound 0.05 µM): 0.35 | relative viability (UMC-11; first compound 0.1581 µM): 0.242 | relative viability (UMC-11; first compound 0.5 µM): 0.273
